{"source": "paper PMC9380258", "about": "“Primary and secondary functions of HLA-E are determined by stability and conformation of the peptide-bound complexes” (Cell Reports, 2022)", "key": {"HLA-E [1]": {"test_system": "HLA-E", "type": "binding, human"}, "HLA-E*01:03": {"target": "HLA-E*01:03 (Homo sapiens, UniProt P13747)", "assay": "SEC-SAXS of peptide-refolded HLA-E*01:03 complexes"}, "HLA-E [2]": {"test_system": "HLA-E", "type": "binding, human", "remark": "listed apart in the source"}}}
{"sequence": "RMAATAVVL [Mtb14 P7V]", "values": [{"measurement": "increase in thermal stability", "setting": "HLA-E [1]", "result": 3.6, "unit": "°C"}, {"measurement": "decrease in the Rg", "setting": "HLA-E*01:03", "result": 6.8, "unit": "Å"}, {"measurement": "decrease in the dmax", "setting": "HLA-E*01:03", "result": 23, "unit": "Å"}, {"measurement": "increase in the ELISA-based binding signal", "setting": "HLA-E [2]", "result": 36, "unit": "%"}]}
